Molecular target: T1, Human Kv1.5 channels (Homo sapiens, UniProt P22460)
T1 construct: expressed in transfected cells; host or cells: Xenopus laevis oocytes injected with in vitro synthesized Kv1.5-encoding RNA
Test: Kv1.5 currents in Xenopus oocytes, two-microelectrode voltage clamp
Assay type: cell-based
Settings: human Kv1.5 expressed in Xenopus laevis oocytes; voltage jumps 500 ms to 0 mV and 40 mV; room temperature; Hill equation
Method: Human Kv1.5 channels were expressed in Xenopus oocytes. For this purpose, firstly ooytes were isolated from Xenopus laevis and were defolliculated. Kv1.5-encoding RNA which had been synthesized in vitro was then injected into these oocytes. After 1-7 days of Kv1.5 protein expression, the Kv1.5 currents were measured on the oocytes by the two-microelectrode voltage clamp technique. The Kv1.5 channels were for this purpose usually activated with voltage jumps lasting 500 ms to 0 mV and 40 mV. A solution of the following composition flowed through the bath: NaCl 96 mM, KCl 2 mM, CaCl2 1.8 mM, MgCl2 1 mM, HEPES 5 mM (titrated to pH 7.4 with NaOH). These experiments were carried out at room temperature. The following were employed for data acquisition and analysis: geneclamp amplifier (Axon Instruments, Foster City, USA) and MacLab D/A converter and software (ADInstruments, Castle Hill, Australia). The compounds of the invention were tested by adding them in various concentrations to the bath solution. The effects of the compounds were calculated as percentage inhibition of the Kv1.5 control current which was obtained when no compound was added to the solution. The data were then extrapolated using the Hill equation in order to determine the inhibitory concentrations IC50 for the respective compounds.

T1 sequence (P22460 whole entry): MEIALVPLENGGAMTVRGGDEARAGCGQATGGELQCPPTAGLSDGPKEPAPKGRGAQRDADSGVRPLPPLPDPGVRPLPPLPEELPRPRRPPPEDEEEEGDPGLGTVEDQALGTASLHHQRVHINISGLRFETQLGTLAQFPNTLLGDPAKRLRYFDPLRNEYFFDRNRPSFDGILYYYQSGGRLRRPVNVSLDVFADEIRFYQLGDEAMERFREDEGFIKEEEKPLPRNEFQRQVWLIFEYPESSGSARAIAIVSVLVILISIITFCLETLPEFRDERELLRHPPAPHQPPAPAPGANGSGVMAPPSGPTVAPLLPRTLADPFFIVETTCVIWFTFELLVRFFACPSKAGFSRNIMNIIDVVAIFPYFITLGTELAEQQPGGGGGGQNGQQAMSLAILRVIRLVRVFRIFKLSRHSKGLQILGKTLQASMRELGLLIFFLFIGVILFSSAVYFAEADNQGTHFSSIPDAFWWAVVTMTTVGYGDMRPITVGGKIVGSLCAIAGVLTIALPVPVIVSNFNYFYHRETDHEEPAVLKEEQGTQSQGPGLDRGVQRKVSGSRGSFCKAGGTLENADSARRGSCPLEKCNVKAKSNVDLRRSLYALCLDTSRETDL

IC50 [nM]	SMILES
2200	CC[C@H](NC(=O)c1cc(OC)ccc1NS(=O)(=O)C(C)C)c1ccccc1 [Example 149]
300	CC[C@H](NC(=O)c1cc(OC)ccc1NS(=O)(=O)c1ccc(OC)cc1)c1ccccc1 [Example 150]
1500	CC[C@H](NC(=O)c1ccccc1NS(=O)(=O)c1ccc(OC)c(OC)c1)c1ccccc1 [Example 151]
2600	CC[C@H](NC(=O)c1cc(O)ccc1NS(=O)(=O)c1ccc(C)cc1)c1ccccc1 [Example 152, 5-Hydroxy-N-(1-phenylpropyl)-2-(toluene-4-sulfonylamino)benzamide]
